Key:
Genome polyprotein [1] = target: T1, Genome polyprotein (dengue virus type 2, UniProt P29990); assay type: functional, Thailand/16681/1984
Genome polyprotein [2] = target: T1, Genome polyprotein; assay type: functional, Thailand/16681/1984; remark: listed apart in the source

T1 sequence (P29990 1346-1475 limits assumed): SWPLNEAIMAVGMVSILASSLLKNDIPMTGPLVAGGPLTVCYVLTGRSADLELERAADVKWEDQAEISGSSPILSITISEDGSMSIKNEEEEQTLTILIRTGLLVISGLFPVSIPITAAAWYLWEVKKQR
T1 sequence (P29990 1476-2093 limits assumed): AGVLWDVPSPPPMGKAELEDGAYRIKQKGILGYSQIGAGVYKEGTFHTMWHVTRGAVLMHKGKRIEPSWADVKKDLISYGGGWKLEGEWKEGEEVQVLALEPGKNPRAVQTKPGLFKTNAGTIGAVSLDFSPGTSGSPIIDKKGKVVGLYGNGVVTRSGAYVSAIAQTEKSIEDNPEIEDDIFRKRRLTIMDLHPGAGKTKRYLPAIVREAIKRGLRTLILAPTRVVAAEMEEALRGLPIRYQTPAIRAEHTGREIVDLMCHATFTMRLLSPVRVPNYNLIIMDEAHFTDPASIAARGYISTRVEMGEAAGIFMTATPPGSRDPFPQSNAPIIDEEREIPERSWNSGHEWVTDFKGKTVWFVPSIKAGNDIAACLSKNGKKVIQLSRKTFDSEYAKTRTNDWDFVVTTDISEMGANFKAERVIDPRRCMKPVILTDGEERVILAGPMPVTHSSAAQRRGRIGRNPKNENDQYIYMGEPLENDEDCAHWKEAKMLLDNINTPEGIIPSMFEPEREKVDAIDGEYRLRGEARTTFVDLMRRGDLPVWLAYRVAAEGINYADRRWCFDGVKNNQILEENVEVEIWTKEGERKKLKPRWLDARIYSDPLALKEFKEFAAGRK

`Cn1ccc(COc2ccc([C@@H](NC(=O)OCc3ccccc3)C(=O)Nc3cccc(CN)c3)cc2)n1` gave an IC50 (Genome polyprotein [1]) of over 99.5 µM and an IC50 (Genome polyprotein [2]) of over 100 µM.
`NCc1cccc(NC(=O)[C@@H](NC(=O)OCc2ccccc2)C2CCN(Cc3cn[nH]c3)CC2)c1` gave an IC50 (Genome polyprotein [1]) of over 99.5 µM and an IC50 (Genome polyprotein [2]) of over 100 µM.
With `Cn1nc2c(c1NC(=O)c1cc(Cl)cc(NC(=O)OCc3ccccc3)c1)CCNC2` the IC50 (Genome polyprotein [1]) was over 99.5 µM and the IC50 (Genome polyprotein [2]) was over 100 µM.
Compound `NCc1cccc(NC(=O)c2ccc(F)c(NC(=O)OCc3ccccc3)c2F)c1` has an IC50 (Genome polyprotein [1]) of over 99.5 µM and an IC50 (Genome polyprotein [2]) of over 100 µM.
Work on `Cc1nnsc1CN1CCC([C@@H](NC(=O)OCc2ccccc2)C(=O)Nc2cccc(CN)c2)CC1` yielded an IC50 (Genome polyprotein [1]) of over 99.5 µM and an IC50 (Genome polyprotein [2]) of over 100 µM.
For `N#Cc1ccc(N2CCN(Cc3c[nH]c4ccccc34)CC2)cc1`, the IC50 (Genome polyprotein [1]) was over 99.5 µM and the IC50 (Genome polyprotein [2]) was over 100 µM.
`NCc1cccc(NC(=O)[C@@H](NC(=O)OCc2ccccc2)C2CCN(Cc3cccnc3)CC2)c1` gave an IC50 (Genome polyprotein [1]) of over 99.5 µM and an IC50 (Genome polyprotein [2]) of over 100 µM.
In the case of `N#Cc1cc(Cl)cc(C(=O)Nc2cccc(CN)c2)c1`, the IC50 (Genome polyprotein [1]) is reported as over 99.5 µM and the IC50 (Genome polyprotein [2]) is reported as over 100 µM.
Work on `NCc1cccc(NC(=O)[C@@H](NC(=O)OCc2ccccc2)C2CCN(C(=O)c3cscn3)CC2)c1` yielded an IC50 (Genome polyprotein [1]) of over 99.5 µM and an IC50 (Genome polyprotein [2]) of over 100 µM.
For `NCc1cccc(NC(=O)[C@@H](NC(=O)OCc2ccccc2)c2ccc(OCC3CCOCC3)cc2)c1`, the IC50 (Genome polyprotein [1]) was 86 µM and the IC50 (Genome polyprotein [2]) was over 100 µM.
In the case of `NCc1cccc(NC(=O)c2cc(Cl)ccc2Oc2cccc(Cl)c2)c1`, the IC50 (Genome polyprotein [1]) is reported as over 99.5 µM and the IC50 (Genome polyprotein [2]) is reported as over 100 µM.
Compound `NCC12CC(NC(=O)c3cc(Cl)cc(NC(=O)OCc4ccccc4)c3)(CCO1)C2` has an IC50 (Genome polyprotein [1]) of over 99.5 µM and an IC50 (Genome polyprotein [2]) of over 100 µM.
With `COc1c(Cl)cc(Cl)cc1C(=O)Nc1cccc(CN)c1` the IC50 (Genome polyprotein [1]) was over 99.5 µM and the IC50 (Genome polyprotein [2]) was over 100 µM.
Compound `O=C(Cn1ccnc(N2CC[C@H](CO)C2)c1=O)NCc1ccsc1` has an IC50 (Genome polyprotein [1]) of over 99.5 µM and an IC50 (Genome polyprotein [2]) of over 100 µM.
Work on `O=C(Cn1ccnc(N2CC[C@H](CO)C2)c1=O)N[C@H]1CCOC1` yielded an IC50 (Genome polyprotein [1]) of over 99.5 µM and an IC50 (Genome polyprotein [2]) of over 100 µM.
`CCCOc1ccc2[nH]cc(CN3CCC(c4cscn4)CC3)c2c1` gave an IC50 (Genome polyprotein [1]) of over 99.5 µM and an IC50 (Genome polyprotein [2]) of over 100 µM.
For `O=C(Nc1cc(Cl)cc(C(=O)Nc2ccnc(OC3CNC3)c2)c1)OCc1ccccc1`, the IC50 (Genome polyprotein [1]) was over 99.5 µM and the IC50 (Genome polyprotein [2]) was over 100 µM.
`NCc1cccc(/C=C/c2cc(Cl)cc(NC(=O)OCc3ccccc3)c2)c1` gave an IC50 (Genome polyprotein [1]) of over 99.5 µM and an IC50 (Genome polyprotein [2]) of over 100 µM.
Compound `CN1CCC[C@H]1COc1ccc([C@@H](NC(=O)OCc2ccccc2)C(=O)Nc2cccc(CN)c2)cc1` has an IC50 (Genome polyprotein [1]) of over 99.5 µM and an IC50 (Genome polyprotein [2]) of over 100 µM.
Work on `NS(=O)(=O)c1ccccc1N1CCN(Cc2c[nH]c3ccccc23)CC1` yielded an IC50 (Genome polyprotein [1]) of over 99.5 µM and an IC50 (Genome polyprotein [2]) of over 100 µM.
`NCc1cccc(NC(=O)[C@@H](NC(=O)OCc2ccccc2)c2ccc(OCc3ccccn3)cc2)c1` was tested, and the IC50 (Genome polyprotein [1]) was over 99.5 µM and the IC50 (Genome polyprotein [2]) was over 100 µM.
Compound `C=CC[C@]1(NC(=O)c2cc(Cl)cc(NC(=O)OCc3ccccc3)c2)CCNC1` has an IC50 (Genome polyprotein [1]) of over 99.5 µM and an IC50 (Genome polyprotein [2]) of over 100 µM.
`NCc1cccc(NS(=O)(=O)c2cc(Cl)cc(NC(=O)OCc3ccccc3)c2)c1` was tested, and the IC50 (Genome polyprotein [1]) was over 99.5 µM and the IC50 (Genome polyprotein [2]) was over 100 µM.
With `CCOC(=O)Nc1cc(Cl)cc(C(=O)Nc2cccc(CN)c2)c1` the IC50 (Genome polyprotein [1]) was over 99.5 µM and the IC50 (Genome polyprotein [2]) was over 100 µM.
`NCc1cccc(NC(=O)[C@@H](NC(=O)OCc2ccccc2)c2ccc(OCc3nc4c(s3)COCC4)cc2)c1` gave an IC50 (Genome polyprotein [1]) of over 99.5 µM and an IC50 (Genome polyprotein [2]) of over 100 µM.
`O=C(Nc1cc(Cl)cc(C(=O)NC[C@@]23CN[C@H](CCO2)C3)c1)OCc1ccccc1` gave an IC50 (Genome polyprotein [1]) of over 99.5 µM and an IC50 (Genome polyprotein [2]) of over 100 µM.
Compound `NCCCc1ccc(F)c(NC(=O)c2cc(Cl)cc(NC(=O)OCc3ccccc3)c2)c1` has an IC50 (Genome polyprotein [1]) of 27.8 µM and an IC50 (Genome polyprotein [2]) of 91.1 µM.
`COCCN(C)C(=O)Cn1ccnc(N2CC[C@@H](CO)C2)c1=O` showed an IC50 (Genome polyprotein [1]) of over 99.5 µM and an IC50 (Genome polyprotein [2]) of over 100 µM.
Work on `NCc1ccc(F)c(NC(=O)c2cc(Cl)cc(NC(=O)OCc3ccccc3)c2)c1` yielded an IC50 (Genome polyprotein [1]) of over 99.5 µM and an IC50 (Genome polyprotein [2]) of over 100 µM.
In the case of `CC(C)OC(=O)Nc1cc(Cl)cc(C(=O)Nc2cccc(CN)c2)c1`, the IC50 (Genome polyprotein [1]) is reported as over 99.5 µM and the IC50 (Genome polyprotein [2]) is reported as over 100 µM.
`NC[C@@H](NC(=O)c1cc(Cl)cc(NC(=O)OCc2ccccc2)c1)c1ccccc1` showed an IC50 (Genome polyprotein [1]) of over 99.5 µM and an IC50 (Genome polyprotein [2]) of over 100 µM.
In the case of `O=C(Nc1cc(Cl)cc(C(=O)NC[C@@H]2CNCCC2(F)F)c1)OCc1ccccc1`, the IC50 (Genome polyprotein [1]) is reported as over 99.5 µM and the IC50 (Genome polyprotein [2]) is reported as over 100 µM.
Work on `CC(C)(C)OC(=O)NCc1cc(Cl)cc(C(=O)O)c1` yielded an IC50 (Genome polyprotein [1]) of over 99.5 µM and an IC50 (Genome polyprotein [2]) of over 100 µM.
`NC[C@H]1C[C@@H](CNC(=O)c2cc(Cl)cc(NC(=O)OCc3ccccc3)c2)CCO1` was tested, and the IC50 (Genome polyprotein [1]) was over 99.5 µM and the IC50 (Genome polyprotein [2]) was over 100 µM.
Compound `c1ccc(N2CCN(Cc3c[nH]c4ccccc34)CC2)nc1` has an IC50 (Genome polyprotein [1]) of over 99.5 µM and an IC50 (Genome polyprotein [2]) of over 100 µM.
Work on `c1ccc(COc2ccc3c(CN4CCC(c5cscn5)CC4)c[nH]c3c2)cc1` yielded an IC50 (Genome polyprotein [1]) of over 99.5 µM and an IC50 (Genome polyprotein [2]) of over 100 µM.
`CCc1[nH]c2ccccc2c1CN1CCC(c2cscn2)CC1` showed an IC50 (Genome polyprotein [1]) of over 99.5 µM and an IC50 (Genome polyprotein [2]) of over 100 µM.
Compound `O=C(Nc1cc(Cl)cc(C(=O)NC[C@H]2CC3(CNC3)CO2)c1)OCc1ccccc1` has an IC50 (Genome polyprotein [1]) of over 99.5 µM and an IC50 (Genome polyprotein [2]) of over 100 µM.
`C[C@@]1(CNC(=O)c2cc(Cl)cc(NC(=O)OCc3ccccc3)c2)CNCCOC1` showed an IC50 (Genome polyprotein [1]) of over 99.5 µM and an IC50 (Genome polyprotein [2]) of over 100 µM.
